Results on 3 compounds are retold here after patent publication US20240067693A1, “POLYPEPTIDES AND USES THEREOF” (MEDIMMUNE LIMITED, priority 2020, published 2024).

Each structure is given as a SMILES string. Numbered stars: 1 amine (or outer) side, 2 acyl side, 3 side chain; on linkers, the order of the positions; unused ones are H or OH. Bridge positions count the residues as written; N and C are the ends. Square brackets hold non-standard residues; d marks the D form. Side chains are listed from the residue outwards. Peptide text beside a SMILES is read from it. * marks the point of attachment. C18 diacid = O=C(O)CCCCCCCCCCCCCCCCC(=O)*; γGlu = O=C(O)[C@H](CCC(=O)[*:2])N[*:1]; αMeF = C[C@](N)(Cc1ccccc1)C(=O)O

Assay [1] addresses T1, rat calcitonin receptor (rat CTR) (Rattus norvegicus, UniProt P32214).
T1 construct: expressed in transfected cells
T1 sequence (P32214 25-516): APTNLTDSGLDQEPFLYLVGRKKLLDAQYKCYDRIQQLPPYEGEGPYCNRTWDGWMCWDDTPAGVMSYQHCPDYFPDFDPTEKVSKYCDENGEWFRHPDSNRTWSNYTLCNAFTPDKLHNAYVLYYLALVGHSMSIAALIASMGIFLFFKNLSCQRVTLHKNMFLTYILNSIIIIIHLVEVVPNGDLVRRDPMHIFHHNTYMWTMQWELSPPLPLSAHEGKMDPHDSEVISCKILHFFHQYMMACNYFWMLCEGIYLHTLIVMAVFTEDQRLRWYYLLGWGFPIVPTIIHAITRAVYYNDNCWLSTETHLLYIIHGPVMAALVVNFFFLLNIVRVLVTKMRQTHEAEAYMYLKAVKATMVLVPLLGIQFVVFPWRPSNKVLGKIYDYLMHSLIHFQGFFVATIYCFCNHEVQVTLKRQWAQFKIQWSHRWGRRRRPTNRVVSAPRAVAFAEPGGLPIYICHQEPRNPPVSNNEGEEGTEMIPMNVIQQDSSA
Briefly: cAMP production in HEK cells with stable recombinant expression of rat calcitonin receptor (rat CTR). In kind it is cell-based. The conditions noted are these: assay buffer with 0.1% BSA. A digest of the protocol: (§1)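 EC50 values come from 4-parameter logistic fits of HTRF cAMP signal, normalised to maximal calcitonin or amylin effect. Peptides were tested in duplicate for 30 min at RT in IBMX-containing (0.5 mM) BSA/HEPES buffer pH 7.4 on stable 1321N1 (human CTR, AMYR3) or HEK (rat CTR, AMYR3) lines.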
For orientation: Cyclic AMP is a second messenger, typically raised through Gs and lowered through Gi signalling.

In a further assay the test system is lean rats. Kind of assay: Rat acute food intake study. It counts as in vivo. The conditions noted are these: lean male Sprague Dawley rats, 20 nmol/kg subcutaneously. In a few lines: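 Male Sprague Dawley rats (n=7/group), fasted 6 h, received 20 nmol/kg test compound or 60 nmol/kg pramlintide subcutaneously 30 min before food return at dark onset. Food intake recorded automatically in home cages over 3 days, binned hourly and analysed as cumulative dark-period intake; body weight taken daily.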

The target of assay [2] is T2, human calcitonin receptor (hCTR) (Homo sapiens, UniProt P30988).
T2 construct: expressed in transfected cells
T2 sequence (P30988 25-474): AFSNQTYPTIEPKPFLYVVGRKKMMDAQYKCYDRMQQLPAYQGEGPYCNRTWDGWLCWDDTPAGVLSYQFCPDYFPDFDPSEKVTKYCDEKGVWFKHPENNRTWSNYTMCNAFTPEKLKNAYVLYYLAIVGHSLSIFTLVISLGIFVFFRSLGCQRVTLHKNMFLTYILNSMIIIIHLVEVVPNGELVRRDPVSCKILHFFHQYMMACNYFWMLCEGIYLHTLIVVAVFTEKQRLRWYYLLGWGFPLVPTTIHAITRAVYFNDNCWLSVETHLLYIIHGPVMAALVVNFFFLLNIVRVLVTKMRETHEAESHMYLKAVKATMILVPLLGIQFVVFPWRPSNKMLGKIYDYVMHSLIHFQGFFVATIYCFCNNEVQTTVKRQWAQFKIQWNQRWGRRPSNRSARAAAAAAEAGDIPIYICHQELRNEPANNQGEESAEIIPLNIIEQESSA
Kind of assay: cAMP production in 1321N1 cells with stable recombinant expression of human calcitonin receptor (hCTR). It counts as cell-based. As to conditions: cAMP, 1321N1 cells, assay buffer with 0.1% BSA; read-out: EC50 (pM) hCTR. In a few lines: as §1

Assay [3] deals with T3, rat amylin receptor (calcitonin receptor co-expressed with receptor activity modifying protein, RAMP3) (Rat AMYR3) (Rattus norvegicus, UniProt P32214+Q9JJ73).
T3 construct: expressed in transfected cells
T3 sequence (P32214 25-516): T1 sequence (P32214 25-516)
T3 sequence (Q9JJ73 23-147 partner): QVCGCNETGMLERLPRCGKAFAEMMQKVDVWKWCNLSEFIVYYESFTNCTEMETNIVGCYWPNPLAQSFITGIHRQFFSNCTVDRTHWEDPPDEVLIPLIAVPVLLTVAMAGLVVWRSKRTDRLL
Briefly: cAMP production in HEK cells with stable recombinant expression of rat amylin receptor (Rat AMYR3). It counts as cell-based. The conditions noted are these: assay buffer with 0.1% BSA. A digest of the protocol: as §1

The target in assay [4] is T4, human amylin receptor (calcitonin receptor co-expressed with receptor activity modifying protein, RAMP3) (hAMYR3) (Homo sapiens, UniProt O60896+P30988).
T4 construct: expressed in transfected cells
T4 sequence (P30988 25-474): T2 sequence (P30988 25-474)
T4 sequence (O60896 24-148 partner): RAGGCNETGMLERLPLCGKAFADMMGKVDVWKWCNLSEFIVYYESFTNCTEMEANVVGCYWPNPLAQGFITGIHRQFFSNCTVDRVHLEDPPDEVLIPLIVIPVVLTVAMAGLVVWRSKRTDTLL
Kind of assay: cAMP production in 1321N1 cells with stable recombinant expression of human amylin receptor (hAMYR3). It counts as cell-based. As to conditions: for Ratio (selectivity hAMYR vs hCTR, ratio of EC50 values at the two receptors): EC50 hCTR / EC50 hAMYR3; for EC50: cAMP, 1321N1 cells, assay buffer with 0.1% BSA, read-out: EC50 (pM) hAMYR3. In a few lines: as §1

On to `CC[C@H](C)[C@H](NC(=O)[C@@H]1CCCN1C(=O)CNC(=O)[C@](C)(Cc1ccccc1)NC(=O)[C@H](CC(N)=O)NC(=O)[C@H](CC(N)=O)NC(=O)[C@H](CO)NC(=O)[C@H](CO)NC(=O)[C@H](Cc1c[nH]cn1)NC(=O)[C@H](CCCNC(=N)N)NC(=O)[C@H](CC(C)C)NC(=O)[C@H](Cc1ccccc1)NC(=O)[C@H](CCC(=O)O)NC(=O)[C@H](C)NC(=O)[C@H](CC(C)C)NC(=O)[C@H](CCCNC(=N)N)NC(=O)[C@H](CCC(N)=O)NC(=O)[C@@H](NC(=O)[C@H](C)NC(=O)[C@@H]1CSSC[C@H](NC(=O)CC[C@H](NC(=O)CCCCCCCCCCCCCCCCC(=O)O)C(=O)O)C(=O)N[C@@H](CC(N)=O)C(=O)N[C@@H]([C@@H](C)O)C(=O)N[C@@H](C)C(=O)N[C@@H]([C@@H](C)O)C(=O)N1)[C@@H](C)O)C(=O)N[C@@H](CC(C)C)C(=O)N1CCC[C@H]1C(=O)N1CCC[C@H]1C(=O)N[C@H](C(=O)N[C@@H](CC(N)=O)C(=O)N[C@H](C(=O)NCC(=O)N[C@@H](CO)C(=O)N[C@@H](CC(N)=O)C(=O)N[C@H](C(=O)N[C@@H](Cc1ccc(O)cc1)C(N)=O)[C@@H](C)O)C(C)C)[C@@H](C)O` [Peptide 10, C18diacid-γE-[CNTATC]ATQRLAEFLRHSSNN(αMePhe)GPILPPTNVGSNTY-amide] ({C18 diacid-γGlu}-CNTATCATQRLAEFLRHSSNN[αMeF]GPILPPTNVGSNTY-NH2; disulfide 1-6), for which the EC50 (usually the midpoint of the concentration-response curve) in assay [1] amounted to 2780 pM. In the assay with lean rats, the “Cummulative food intake (% vehicle treated intake) At 12 h” value worked out at 18.8 % vehicle treated intake, the “Cummulative food intake (% vehicle treated intake) At 24 h” value amounted to 24.6 % vehicle treated intake and the “Cummulative food intake (% vehicle treated intake) At 48 h” value is 46.6 % vehicle treated intake. Also, the EC50 in assay [2] stood at 2730 pM. Moreover, the 50% effective concentration (EC50) in assay [3] came out at 12.1 pM. In addition, in assay [4], the “Ratio (selectivity hAMYR vs hCTR, ratio of EC50 values at the two receptors)” value is on record as 15 and the EC50 was found to be 183 pM.

On to `CC[C@H](C)[C@H](NC(=O)[C@@H]1CCCN1C(=O)CNC(=O)[C@](C)(Cc1ccccc1)NC(=O)[C@H](CC(N)=O)NC(=O)[C@H](CC(N)=O)NC(=O)[C@H](CO)NC(=O)[C@H](CO)NC(=O)[C@H](Cc1c[nH]cn1)NC(=O)[C@H](CCCNC(=N)N)NC(=O)[C@H](CC(C)C)NC(=O)[C@H](Cc1ccccc1)NC(=O)[C@H](CCC(=O)O)NC(=O)[C@H](C)NC(=O)[C@H](CC(C)C)NC(=O)[C@H](CCCNC(=N)N)NC(=O)[C@H](CCC(N)=O)NC(=O)[C@@H](NC(=O)[C@H](C)NC(=O)[C@@H]1CSSC[C@H](NC(=O)[C@H](CCCCN)NC(=O)[C@@H](N)CCCCNC(=O)CC[C@H](NC(=O)CCCCCCCCCCCCCCCCC(=O)O)C(=O)O)C(=O)N[C@@H](CC(N)=O)C(=O)N[C@@H]([C@@H](C)O)C(=O)N[C@@H](C)C(=O)N[C@@H]([C@@H](C)O)C(=O)N1)[C@@H](C)O)C(=O)N[C@@H](CC(C)C)C(=O)N1CCC[C@H]1C(=O)N1CCC[C@H]1C(=O)N[C@H](C(=O)N[C@@H](CC(N)=O)C(=O)N[C@H](C(=O)NCC(=O)N[C@@H](CO)C(=O)N[C@@H](CC(N)=O)C(=O)N[C@H](C(=O)N[C@@H](Cc1ccc(O)cc1)C(N)=O)[C@@H](C)O)C(C)C)[C@@H](C)O` [Peptide 12, K(γE-C18diacid)K[CNTATC]ATQRLAEFLRHSSNN(αMePhe)GPILPPTNVGSNTY-amide] (H-K([γGlu-C18 diacid])KCNTATCATQRLAEFLRHSSNN[αMeF]GPILPPTNVGSNTY-NH2; disulfide 3-8; N-terminus assumed), for which the EC50 in assay [1] was 107 pM; in assay [2] it was 1220 pM; in assay [3], 5 pM; in assay [4], 158 pM. Further, the “Cummulative food intake (% vehicle treated intake) At 12 h” value with lean rats was 9.4 % vehicle treated intake. The “Cummulative food intake (% vehicle treated intake) At 24 h” value with lean rats was determined as 7.5 % vehicle treated intake. Also, the “Cummulative food intake (% vehicle treated intake) At 48 h” value in the assay with lean rats was determined as 23.6 % vehicle treated intake. In assay [4], the “Ratio (selectivity hAMYR vs hCTR, ratio of EC50 values at the two receptors)” value is given as 8.

On to `CC[C@H](C)[C@H](NC(=O)[C@@H]1CCCN1C(=O)CNC(=O)[C@](C)(Cc1ccccc1)NC(=O)[C@H](CC(N)=O)NC(=O)[C@H](CC(N)=O)NC(=O)[C@H](CO)NC(=O)[C@H](CO)NC(=O)[C@H](Cc1c[nH]cn1)NC(=O)[C@H](CCCNC(=N)N)NC(=O)[C@H](CC(C)C)NC(=O)[C@H](Cc1ccccc1)NC(=O)[C@H](CC(N)=O)NC(=O)[C@H](C)NC(=O)[C@H](CC(C)C)NC(=O)[C@H](CCCNC(=N)N)NC(=O)[C@H](CCC(N)=O)NC(=O)[C@@H](NC(=O)[C@H](C)NC(=O)[C@@H]1CSSC[C@H](NC(=O)[C@H](CCCCN)NC(=O)[C@@H](N)CCCCNC(=O)CC[C@H](NC(=O)CCCCCCCCCCCCCCCCC(=O)O)C(=O)O)C(=O)N[C@@H](CC(N)=O)C(=O)N[C@@H]([C@@H](C)O)C(=O)N[C@@H](C)C(=O)N[C@@H]([C@@H](C)O)C(=O)N1)[C@@H](C)O)C(=O)N[C@@H](CC(C)C)C(=O)N1CCC[C@H]1C(=O)N1CCC[C@H]1C(=O)N[C@H](C(=O)N[C@@H](CCC(=O)O)C(=O)N[C@H](C(=O)NCC(=O)N[C@@H](CO)C(=O)N[C@@H](CC(N)=O)C(=O)N[C@H](C(=O)N[C@@H](Cc1ccc(O)cc1)C(N)=O)[C@@H](C)O)C(C)C)[C@@H](C)O` [Peptide 15, K(γE-C18diacid)K[CNTATC]ATQRLANFLRHSSNN(αMePhe)GPILPPTEVGSNTY-amide] (H-K([γGlu-C18 diacid])KCNTATCATQRLANFLRHSSNN[αMeF]GPILPPTEVGSNTY-NH2; disulfide 3-8; N-terminus assumed), for which the half-maximal effective concentration (EC50) in assay [1] was determined as 1820 pM; in assay [2], 5460 pM; in assay [3], 10.3 pM; in assay [4], 522 pM. Besides, the “Cummulative food intake (% vehicle treated intake) At 12 h” value with lean rats was 45.2 % vehicle treated intake. In addition, the “Cummulative food intake (% vehicle treated intake) At 24 h” value with lean rats came out at 49.1 % vehicle treated intake. The “Cummulative food intake (% vehicle treated intake) At 48 h” value in the assay with lean rats turned out to be 51 % vehicle treated intake. Besides, the “Ratio (selectivity hAMYR vs hCTR, ratio of EC50 values at the two receptors)” value in assay [4] is on record as 10.
